Earlier results, collected in patent US11008566B2, “Method for obtaining antibody” (Chiome Bioscience Inc., priority 2016, dated 2021).

Settings: antibody drugs, Non Patent Literatures 1 and 2

Kd: 0.046 nM
Substance: Lucentis: antibody drug (registered trademark), high-affinity antibody
